Assay results from patent publication US20030105595A1, “Chi square tests for gene expression” (priority 2001, published 2003).

How the values were obtained:
Assay in all cases: multi-sample expression analysis, band intensity
Format in all cases: in vivo
Details in all cases: Pooled
band b1i0_54.5 = system: band b1i0_54.5
Excerpt: (§1) To practice the invention, one skilled in the art obtains a source of biological samples, as well as expression information about the biological samples, i.e., expression information relative to one or more genes or polypeptides encoded therein. Data is collected for a particular phenotype appearing within a given population under study, whereby expression of that phenotype is to be determined within the biological sample under study. The phenotype is correlated to a specific genotype, which is then represented as a band with a given intentity, thus indicative of gene expression levels, and is then compared to control samples. Alternatively, the response of a gene to dosage with one or more drugs is determined by band intensity. The standard deviation from the mean (StdDev) is calculated for the control samples, and is fit to functional form in the following equation: […]
(§2) A multi-sample expression analysis was run using the program described in Example 1. For each drug run, only runs for genes producing bands with a p-value<10^−5 in at least 2 of the following 3 comparisons were selected: low dose versus vehicle, high dose versus vehicle and low dose versus high dose. […] Since clusters found using all 13K bands included some of the best 2K bands, it was concluded that no essential signal was lost (see FIGS. 3 and 4). […] A comparison using the same analytic tests on only the best 2K bands. It can be seen that the Chi Square metric provides a better distinction between low and high doses than the correlation metric, which is not able to distinguish between the low dose and the high dose (see FIG. 6). The low-dose/high dose statistical variation is more pronounced when only the best 2K bands are selected.

band b1i0_57.4 = system: band b1i0_57.4
Excerpt: as §1, §2

band b1i0_60.7 = system: band b1i0_60.7
Excerpt: as §1, §2

band b1i0_63.7 = system: band b1i0_63.7
Excerpt: as §1, §2

band b1i0_69.4 = system: band b1i0_69.4
Excerpt: as §1, §2

band b1i0_53.0 = system: band b1i0_53.0
Excerpt: as §1, §2

band b1i0_51.7 = system: band b1i0_51.7
Excerpt: as §1, §2

band b1i0_62.5 = system: band b1i0_62.5
Excerpt: as §1, §2

Dichlorobenzene
band intensity b1i0_54.5 (band b1i0_54.5; High dose, 1d): 91.99
band intensity b1i0_54.5 (band b1i0_54.5; High dose, 3d): 89.82
band intensity b1i0_54.5 (band b1i0_54.5; High dose, 7d): 80.92
band intensity b1i0_54.5 (band b1i0_54.5; High dose, 14d): 84.91
band intensity b1i0_54.5 (band b1i0_54.5; Low dose, 1d): 88.39
band intensity b1i0_54.5 (band b1i0_54.5; Low dose, 3d): 128.4
band intensity b1i0_54.5 (band b1i0_54.5; Low dose, 7d): 88.11
band intensity b1i0_54.5 (band b1i0_54.5; Low dose, 14d): 101.4
band intensity b1i0_57.4 (band b1i0_57.4; High dose, 1d): 1260
band intensity b1i0_57.4 (band b1i0_57.4; High dose, 3d): 1064
band intensity b1i0_57.4 (band b1i0_57.4; High dose, 7d): 1287
band intensity b1i0_57.4 (band b1i0_57.4; High dose, 14d): 1142
band intensity b1i0_57.4 (band b1i0_57.4; Low dose, 1d): 1301
band intensity b1i0_57.4 (band b1i0_57.4; Low dose, 3d): 1352
band intensity b1i0_57.4 (band b1i0_57.4; Low dose, 7d): 1298
band intensity b1i0_57.4 (band b1i0_57.4; Low dose, 14d): 1338
band intensity b1i0_60.7 (band b1i0_60.7; High dose, 1d): 79.94
band intensity b1i0_60.7 (band b1i0_60.7; High dose, 3d): 62.13
band intensity b1i0_60.7 (band b1i0_60.7; High dose, 7d): 77.87
band intensity b1i0_60.7 (band b1i0_60.7; High dose, 14d): 82.42
band intensity b1i0_60.7 (band b1i0_60.7; Low dose, 1d): 95.98
band intensity b1i0_60.7 (band b1i0_60.7; Low dose, 3d): 58.61
band intensity b1i0_60.7 (band b1i0_60.7; Low dose, 7d): 74.81
band intensity b1i0_60.7 (band b1i0_60.7; Low dose, 14d): 94.46
band intensity b1i0_63.7 (band b1i0_63.7; High dose, 1d): 129
band intensity b1i0_63.7 (band b1i0_63.7; High dose, 3d): 5.698
band intensity b1i0_63.7 (band b1i0_63.7; High dose, 7d): 224.3
band intensity b1i0_63.7 (band b1i0_63.7; High dose, 14d): 157.7
band intensity b1i0_63.7 (band b1i0_63.7; Low dose, 1d): 166.2
band intensity b1i0_63.7 (band b1i0_63.7; Low dose, 3d): 24.94
band intensity b1i0_63.7 (band b1i0_63.7; Low dose, 7d): 258.8
band intensity b1i0_63.7 (band b1i0_63.7; Low dose, 14d): 152.1
band intensity b1i0_69.4 (band b1i0_69.4; High dose, 1d): 295.5
band intensity b1i0_69.4 (band b1i0_69.4; High dose, 3d): 393.2
band intensity b1i0_69.4 (band b1i0_69.4; High dose, 7d): 261.7
band intensity b1i0_69.4 (band b1i0_69.4; High dose, 14d): 311.3
band intensity b1i0_69.4 (band b1i0_69.4; Low dose, 1d): 130.6
band intensity b1i0_69.4 (band b1i0_69.4; Low dose, 3d): 334.6
band intensity b1i0_69.4 (band b1i0_69.4; Low dose, 7d): 304.3
band intensity b1i0_69.4 (band b1i0_69.4; Low dose, 14d): 333.2913
band intensity b1i0_53.0 (band b1i0_53.0; High dose, 1d): 103.4
band intensity b1i0_53.0 (band b1i0_53.0; High dose, 3d): 48.52
band intensity b1i0_53.0 (band b1i0_53.0; High dose, 7d): 99.66
band intensity b1i0_53.0 (band b1i0_53.0; High dose, 14d): 95.42
band intensity b1i0_53.0 (band b1i0_53.0; Low dose, 1d): 127.1
band intensity b1i0_53.0 (band b1i0_53.0; Low dose, 3d): 71.53
band intensity b1i0_53.0 (band b1i0_53.0; Low dose, 7d): 113.8
band intensity b1i0_53.0 (band b1i0_53.0; Low dose, 14d): 116.4
band intensity b1i0_51.7 (band b1i0_51.7; High dose, 1d): 27.84
band intensity b1i0_51.7 (band b1i0_51.7; High dose, 3d): 10.75
band intensity b1i0_51.7 (band b1i0_51.7; High dose, 7d): 16.63
band intensity b1i0_51.7 (band b1i0_51.7; High dose, 14d): 21.77
band intensity b1i0_51.7 (band b1i0_51.7; Low dose, 1d): 28.93
band intensity b1i0_51.7 (band b1i0_51.7; Low dose, 3d): 26.06
band intensity b1i0_51.7 (band b1i0_51.7; Low dose, 7d): 16.57
band intensity b1i0_51.7 (band b1i0_51.7; Low dose, 14d): 23.43
band intensity b1i0_62.5 (band b1i0_62.5; High dose, 1d): 68.45
band intensity b1i0_62.5 (band b1i0_62.5; High dose, 3d): 97.82
band intensity b1i0_62.5 (band b1i0_62.5; High dose, 7d): 76.86
band intensity b1i0_62.5 (band b1i0_62.5; High dose, 14d): 64.49
band intensity b1i0_62.5 (band b1i0_62.5; Low dose, 1d): 73.54
band intensity b1i0_62.5 (band b1i0_62.5; Low dose, 3d): 76.31
band intensity b1i0_62.5 (band b1i0_62.5; Low dose, 7d): 88.91
band intensity b1i0_62.5 (band b1i0_62.5; Low dose, 14d): 68.64

CC(=O)[C@@]1(O)CC[C@H]2[C@@H]3C=C(Cl)C4=CC(=O)[C@@H]5C[C@@H]5[C@]4(C)[C@H]3CC[C@@]21C [Cyproterone]
band intensity b1i0_54.5 (band b1i0_54.5; High dose, 1d): 98.48
band intensity b1i0_54.5 (band b1i0_54.5; High dose, 3d): 80.83
band intensity b1i0_54.5 (band b1i0_54.5; High dose, 7d): 81.21
band intensity b1i0_54.5 (band b1i0_54.5; High dose, 14d): 69.78
band intensity b1i0_54.5 (band b1i0_54.5; Low dose, 1d): 94.41
band intensity b1i0_54.5 (band b1i0_54.5; Low dose, 3d): 93.73
band intensity b1i0_54.5 (band b1i0_54.5; Low dose, 7d): 98.2
band intensity b1i0_57.4 (band b1i0_57.4; High dose, 1d): 1105
band intensity b1i0_57.4 (band b1i0_57.4; High dose, 3d): 1021
band intensity b1i0_57.4 (band b1i0_57.4; High dose, 7d): 1105
band intensity b1i0_57.4 (band b1i0_57.4; High dose, 14d): 775.5
band intensity b1i0_57.4 (band b1i0_57.4; Low dose, 1d): 1285
band intensity b1i0_57.4 (band b1i0_57.4; Low dose, 3d): 1338
band intensity b1i0_57.4 (band b1i0_57.4; Low dose, 7d): 1437
band intensity b1i0_60.7 (band b1i0_60.7; High dose, 1d): 53.9
band intensity b1i0_60.7 (band b1i0_60.7; High dose, 3d): 46.42
band intensity b1i0_60.7 (band b1i0_60.7; High dose, 7d): 73.61
band intensity b1i0_60.7 (band b1i0_60.7; High dose, 14d): 57.48
band intensity b1i0_60.7 (band b1i0_60.7; Low dose, 1d): 76.15
band intensity b1i0_60.7 (band b1i0_60.7; Low dose, 3d): 72.42
band intensity b1i0_60.7 (band b1i0_60.7; Low dose, 7d): 80.22
band intensity b1i0_63.7 (band b1i0_63.7; High dose, 1d): 51.36
band intensity b1i0_63.7 (band b1i0_63.7; High dose, 3d): 111.8
band intensity b1i0_63.7 (band b1i0_63.7; High dose, 7d): 154.7
band intensity b1i0_63.7 (band b1i0_63.7; High dose, 14d): 18.52
band intensity b1i0_63.7 (band b1i0_63.7; Low dose, 1d): 68.2
band intensity b1i0_63.7 (band b1i0_63.7; Low dose, 3d): 110.4
band intensity b1i0_63.7 (band b1i0_63.7; Low dose, 7d): 146
band intensity b1i0_69.4 (band b1i0_69.4; High dose, 1d): 254.9
band intensity b1i0_69.4 (band b1i0_69.4; High dose, 3d): 250.7
band intensity b1i0_69.4 (band b1i0_69.4; High dose, 7d): 317.9
band intensity b1i0_69.4 (band b1i0_69.4; High dose, 14d): 528.3
band intensity b1i0_69.4 (band b1i0_69.4; Low dose, 1d): 243.2
band intensity b1i0_69.4 (band b1i0_69.4; Low dose, 3d): 270.7
band intensity b1i0_69.4 (band b1i0_69.4; Low dose, 7d): 326.3
band intensity b1i0_53.0 (band b1i0_53.0; High dose, 1d): 93.39
band intensity b1i0_53.0 (band b1i0_53.0; High dose, 3d): 99.72
band intensity b1i0_53.0 (band b1i0_53.0; High dose, 7d): 99.01
band intensity b1i0_53.0 (band b1i0_53.0; High dose, 14d): 40.97
band intensity b1i0_53.0 (band b1i0_53.0; Low dose, 1d): 111.6
band intensity b1i0_53.0 (band b1i0_53.0; Low dose, 3d): 99.85
band intensity b1i0_53.0 (band b1i0_53.0; Low dose, 7d): 99.01
band intensity b1i0_51.7 (band b1i0_51.7; High dose, 1d): 35.07
band intensity b1i0_51.7 (band b1i0_51.7; High dose, 3d): 32.34
band intensity b1i0_51.7 (band b1i0_51.7; High dose, 7d): 22.63
band intensity b1i0_51.7 (band b1i0_51.7; High dose, 14d): 19.9
band intensity b1i0_51.7 (band b1i0_51.7; Low dose, 1d): 19.27
band intensity b1i0_51.7 (band b1i0_51.7; Low dose, 3d): 21.87
band intensity b1i0_51.7 (band b1i0_51.7; Low dose, 7d): 12.77
band intensity b1i0_62.5 (band b1i0_62.5; High dose, 1d): 49.19
band intensity b1i0_62.5 (band b1i0_62.5; High dose, 3d): 64.93
band intensity b1i0_62.5 (band b1i0_62.5; High dose, 7d): 71.82
band intensity b1i0_62.5 (band b1i0_62.5; High dose, 14d): 148.3
band intensity b1i0_62.5 (band b1i0_62.5; Low dose, 1d): 62.41
band intensity b1i0_62.5 (band b1i0_62.5; Low dose, 3d): 59.37
band intensity b1i0_62.5 (band b1i0_62.5; Low dose, 7d): 70.85
